Data taken from patent US20220095618A1, “HERBICIDAL COMPOSITIONS” (SYNGENTA CROP PROTECTION AG, priority 2019, published 2022).

What was measured:
Test in all cases: Post-emergence efficacy of compounds of Formula (I) (B1), glasshouse
Format in all cases: in vivo
[1] = test system: Amaranthus palmeri (AMAPA); conditions: Amaranthus palmeri, post-emergence, 312 h; Application Rate 500 g/Ha; evaluated after 13 days; read-out: Control of AMAPA after post-emergence application (100=total damage to plant; 0=no damage to plant)
Description: (§1) Seeds of a variety of test species were sown in standard Iaom-based soil in pots:— Ipomoea hederacea (IPOHE), Euphorbia heterophylla (EPHHL), Chenopodium album (CHEAL), Amaranthus palmeri (AMAPA), Lolium perenne (LOLPE), Digitaria sanguinalis (DIGSA), Eleusine indica (ELEIN), Echinochloa crus-galli (ECHCG), Setaria faberi (SETFA). After cultivation for 14 days (post-emergence) under controlled conditions in a glasshouse (at 24/16° C., day/night; 14 hours light; 65% humidity), the plants were sprayed with an aqueous spray solution derived from the dissolution of the technical active ingredient Formula (I) in a small amount of acetone and a special solvent and emulsifier mixture referred to as IF50 (11.12% Emulsogen EL360 TM+44.44% N-methylpyrrolidone+44.44% Dowanol DPM glycol ether), to create a 50 g/I solution which was then diluted to required concentration using 0.25% or 1% Empicol ESC70 (Sodium lauryl ether sulphate)+1% ammonium sulphate as diluent. The delivery of the aqueous spray solution was via a laboratory track sprayer which delivered the aqueous spray composition at a rate of 200 litres per hectare, using a flat fan nozzle (Teejet 11002VS) and an application volume of 200 litre/ha (at 2 bar).
(§2) The test plants were then grown in a glasshouse under controlled conditions (at 24/16° C., day/night; 14 hours light; 65% humidity) and watered twice daily. After 13 days the test was evaluated (100=total damage to plant; 0=no damage to plant).

[2] = test system: Chenopodium album (CHEAL); conditions: Chenopodium album, post-emergence, 312 h, Application Rate 500 g/Ha; evaluated after 13 days; read-out: Control of CHEAL after post-emergence application (100=total damage to plant; 0=no damage to plant)
Description: as §1, §2

[3] = test system: Digitaria sanguinalis (DIGSA); conditions: Digitaria sanguinalis, post-emergence, 312 h; Application Rate 500 g/Ha; evaluated after 13 days; read-out: Control of DIGSA after post-emergence application (100=total damage to plant; 0=no damage to plant)
Description: as §1, §2

[4] = test system: Echinochloa crus-galli (ECHCG); conditions: Echinochloa crus-galli, post-emergence, 312 h, Application Rate 500 g/Ha; evaluated after 13 days; read-out: Control of ECHCG after post-emergence application (100=total damage to plant; 0=no damage to plant)
Description: as §1, §2

[5] = test system: Eleusine indica (ELEIN); conditions: Eleusine indica, post-emergence, 312 h, Application Rate 500 g/Ha; evaluated after 13 days; read-out: Control of ELEIN after post-emergence application (100=total damage to plant; 0=no damage to plant)
Description: as §1, §2

[6] = test system: Euphorbia heterophylla (EPHHL); conditions: Application Rate 500 g/Ha, evaluated after 13 days; for pest or weed control at 500 g/ha: Euphorbia heterophylla, post-emergence, 312 h, read-out: Control of EPHHL after post-emergence application (100=total damage to plant; 0=no damage to plant)
Description: as §1, §2

[7] = test system: Ipomoea hederacea (IPOHE); conditions: Ipomoea hederacea, post-emergence, 312 h, Application Rate 500 g/Ha; evaluated after 13 days; read-out: Control of IPOHE after post-emergence application (100=total damage to plant; 0=no damage to plant)
Description: as §1, §2

[8] = test system: Lolium perenne (LOLPE); conditions: Application Rate 500 g/Ha, evaluated after 13 days; for pest or weed control at 500 g/ha: Lolium perenne, post-emergence, 312 h, read-out: Control of LOLPE after post-emergence application (100=total damage to plant; 0=no damage to plant)
Description: as §1, §2

[9] = test system: Setaria faberi (SETFA); conditions: Application Rate 500 g/Ha, evaluated after 13 days; for pest or weed control at 500 g/ha: Setaria faberi, post-emergence, 312 h, read-out: Control of SETFA after post-emergence application (100=total damage to plant; 0=no damage to plant)
Description: as §1, §2

O=S(=O)([O-])CC[n+]1ccc(-c2ncccn2)cn1 [Compound 1.001, 2-(4-pyrimidin-2-ylpyridazin-1-ium-1-yl)ethanesulfonate]
pest or weed control at 500 g/ha [1]: 100%
pest or weed control at 500 g/ha [2]: 100%
pest or weed control at 500 g/ha [3]: 100%
pest or weed control at 500 g/ha [4]: 70%
pest or weed control at 500 g/ha [5]: 100%
pest or weed control at 500 g/ha [6]: 100%
pest or weed control at 500 g/ha [7]: 100%
pest or weed control at 500 g/ha [8]: 70%
pest or weed control at 500 g/ha [9]: 100%

O=S(=O)([O-])CC[n+]1ccc(-c2ccnnc2)cn1 [Compound 1.006, 2-(4-pyridazin-4-ylpyridazin-1-ium-1-yl)ethanesulfonate]
pest or weed control at 500 g/ha [1]: 100%
pest or weed control at 500 g/ha [2]: 100%
pest or weed control at 500 g/ha [3]: 80%
pest or weed control at 500 g/ha [4]: 60%
pest or weed control at 500 g/ha [5]: 100%
pest or weed control at 500 g/ha [6]: 100%
pest or weed control at 500 g/ha [7]: 100%
pest or weed control at 500 g/ha [8]: 80%
pest or weed control at 500 g/ha [9]: 30%

N[C@@H](CCC[n+]1ccc(-c2ncccn2)cn1)C(=O)O [Compound 1.030, [(1S)-1-carboxy-4-(4-pyrimidin-2-ylpyridazin-1-ium-1-yl)butyl]-ammonium dichloride]
pest or weed control at 500 g/ha [1]: 100%
pest or weed control at 500 g/ha [2]: 100%
pest or weed control at 500 g/ha [3]: 100%
pest or weed control at 500 g/ha [4]: 100%
pest or weed control at 500 g/ha [5]: 90%
pest or weed control at 500 g/ha [6]: 100%
pest or weed control at 500 g/ha [7]: 60%
pest or weed control at 500 g/ha [8]: 60%
pest or weed control at 500 g/ha [9]: 100%

N#C[N-]C(=O)CC[n+]1ccc(-c2ncccn2)cn1 [Compound 1.033]
pest or weed control at 500 g/ha [1]: 100%
pest or weed control at 500 g/ha [2]: 100%
pest or weed control at 500 g/ha [3]: 100%
pest or weed control at 500 g/ha [4]: 90%
pest or weed control at 500 g/ha [5]: 100%
pest or weed control at 500 g/ha [6]: 100%
pest or weed control at 500 g/ha [7]: 50%
pest or weed control at 500 g/ha [8]: 90%
pest or weed control at 500 g/ha [9]: 90%

O=S(=O)([O-])CC[n+]1ccc(-c2ccncc2)cn1 [Compound 1.007]
pest or weed control at 500 g/ha [1]: 100%
pest or weed control at 500 g/ha [2]: 100%
pest or weed control at 500 g/ha [3]: 100%
pest or weed control at 500 g/ha [4]: 80%
pest or weed control at 500 g/ha [5]: 100%
pest or weed control at 500 g/ha [6]: 40%
pest or weed control at 500 g/ha [7]: 30%
pest or weed control at 500 g/ha [8]: 90%
pest or weed control at 500 g/ha [9]: 70%

Nc1ccnc(-c2cc[n+](CCC(=O)O)nc2)n1 [Compound 1.016]
pest or weed control at 500 g/ha [2]: 90%
pest or weed control at 500 g/ha [3]: 100%
pest or weed control at 500 g/ha [4]: 100%
pest or weed control at 500 g/ha [5]: 100%
pest or weed control at 500 g/ha [6]: 90%
pest or weed control at 500 g/ha [7]: 30%
pest or weed control at 500 g/ha [8]: 70%
pest or weed control at 500 g/ha [9]: 100%

CC(C[n+]1ccc(-c2ncccn2)cn1)C(=O)O (centres unmarked) [Compound 1.024]
pest or weed control at 500 g/ha [1]: 100%
pest or weed control at 500 g/ha [2]: 90%
pest or weed control at 500 g/ha [3]: 90%
pest or weed control at 500 g/ha [4]: 100%
pest or weed control at 500 g/ha [5]: 100%
pest or weed control at 500 g/ha [6]: 100%
pest or weed control at 500 g/ha [7]: 40%
pest or weed control at 500 g/ha [8]: 80%
pest or weed control at 500 g/ha [9]: 100%

O=C(O)CC[n+]1ccc(-c2cnccn2)cn1.O=C([O-])C(F)(F)F [Compound 1.005, 3-(4-pyrazin-2-ylpyridazin-1-ium-1-yl)propanoic acid 2,2,2-trifluoroacetate]
pest or weed control at 500 g/ha [1]: 100%
pest or weed control at 500 g/ha [2]: 100%
pest or weed control at 500 g/ha [3]: 100%
pest or weed control at 500 g/ha [4]: 100%
pest or weed control at 500 g/ha [5]: 100%
Control of EPHHL after post-emergence application (100=total damage to plant; 0=no damage to plant) [6]: 70
pest or weed control at 500 g/ha [7]: 30%
Control of LOLPE after post-emergence application (100=total damage to plant; 0=no damage to plant) [8]: 80
Control of SETFA after post-emergence application (100=total damage to plant; 0=no damage to plant) [9]: 60
